Assay results as given in ChEMBL document CHEMBL4840351 (J Med Chem, 2021).
Values belong to the compound of their own block, whether it stands above or below them.

Tests used:
[1] = target: Tyrosine-protein kinase BTK (Homo sapiens, UniProt Q06187); assay: Inhibition of full-length N-terminal GST tagged BTK (2 to 659 residues) (unknown origin) expressed in Sf21 insect cells using NH2-ETVYSEVRK-biotin as substrate preincubated for 1 hr followed by ATP addition and measured after 2 hrs by ELISA
[2] = target: Epidermal growth factor receptor (Homo sapiens, UniProt P00533); assay: Inhibition of N-terminal DYKDDDD-tagged EGFR (669 to 1210 residues) (unknown origin) expressed in Sf21 insect cells using NH2-ETVYSEVRK-biotin as substrate preincubated for 1 hr followed by ATP addition and measured after 2 hrs by ELISA
Epidermal growth factor receptor, sequence (P00533 whole entry, the tested form may be a part): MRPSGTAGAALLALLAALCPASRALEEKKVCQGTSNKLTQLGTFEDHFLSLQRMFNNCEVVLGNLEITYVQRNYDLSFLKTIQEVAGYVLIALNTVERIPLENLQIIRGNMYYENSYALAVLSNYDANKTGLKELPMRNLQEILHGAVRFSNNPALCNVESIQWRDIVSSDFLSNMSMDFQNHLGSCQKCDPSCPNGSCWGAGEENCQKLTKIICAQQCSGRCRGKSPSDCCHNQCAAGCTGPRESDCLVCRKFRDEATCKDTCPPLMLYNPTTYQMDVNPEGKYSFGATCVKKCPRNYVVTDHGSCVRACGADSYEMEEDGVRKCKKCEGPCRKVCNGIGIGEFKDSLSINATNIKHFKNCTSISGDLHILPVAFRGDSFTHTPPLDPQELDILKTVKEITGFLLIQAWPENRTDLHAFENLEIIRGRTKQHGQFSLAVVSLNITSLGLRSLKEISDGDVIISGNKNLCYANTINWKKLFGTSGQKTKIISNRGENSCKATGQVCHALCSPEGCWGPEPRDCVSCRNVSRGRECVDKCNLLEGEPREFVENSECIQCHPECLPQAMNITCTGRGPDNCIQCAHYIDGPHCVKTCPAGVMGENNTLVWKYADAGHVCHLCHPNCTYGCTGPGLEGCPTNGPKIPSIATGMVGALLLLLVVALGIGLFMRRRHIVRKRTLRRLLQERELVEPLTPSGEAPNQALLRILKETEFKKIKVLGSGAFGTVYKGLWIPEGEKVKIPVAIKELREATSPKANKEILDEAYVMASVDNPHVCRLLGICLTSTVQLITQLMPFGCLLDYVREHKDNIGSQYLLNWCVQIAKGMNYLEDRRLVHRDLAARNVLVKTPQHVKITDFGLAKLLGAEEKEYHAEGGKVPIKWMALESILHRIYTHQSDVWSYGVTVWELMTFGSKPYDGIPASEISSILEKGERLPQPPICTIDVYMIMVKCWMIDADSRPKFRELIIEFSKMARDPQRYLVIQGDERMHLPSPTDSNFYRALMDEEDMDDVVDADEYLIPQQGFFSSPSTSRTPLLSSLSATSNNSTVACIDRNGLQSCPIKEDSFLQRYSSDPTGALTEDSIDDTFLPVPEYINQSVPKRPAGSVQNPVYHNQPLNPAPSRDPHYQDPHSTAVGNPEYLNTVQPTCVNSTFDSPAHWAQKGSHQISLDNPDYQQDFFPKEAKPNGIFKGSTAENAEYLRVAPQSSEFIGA

[3] = target: T1, Tyrosine-protein kinase ITK/TSK (Homo sapiens, UniProt Q08881); assay: Inhibition of full-length N-terminal GST-tagged ITK (2 to 620 residues) (unknown origin) expressed in Sf21 insect cells using NH2-ETVYSEVRK-biotin as substrate preincubated for 1 hr followed by ATP addition and measured after 2 hrs by ELISA
T1 sequence (Q08881 whole entry): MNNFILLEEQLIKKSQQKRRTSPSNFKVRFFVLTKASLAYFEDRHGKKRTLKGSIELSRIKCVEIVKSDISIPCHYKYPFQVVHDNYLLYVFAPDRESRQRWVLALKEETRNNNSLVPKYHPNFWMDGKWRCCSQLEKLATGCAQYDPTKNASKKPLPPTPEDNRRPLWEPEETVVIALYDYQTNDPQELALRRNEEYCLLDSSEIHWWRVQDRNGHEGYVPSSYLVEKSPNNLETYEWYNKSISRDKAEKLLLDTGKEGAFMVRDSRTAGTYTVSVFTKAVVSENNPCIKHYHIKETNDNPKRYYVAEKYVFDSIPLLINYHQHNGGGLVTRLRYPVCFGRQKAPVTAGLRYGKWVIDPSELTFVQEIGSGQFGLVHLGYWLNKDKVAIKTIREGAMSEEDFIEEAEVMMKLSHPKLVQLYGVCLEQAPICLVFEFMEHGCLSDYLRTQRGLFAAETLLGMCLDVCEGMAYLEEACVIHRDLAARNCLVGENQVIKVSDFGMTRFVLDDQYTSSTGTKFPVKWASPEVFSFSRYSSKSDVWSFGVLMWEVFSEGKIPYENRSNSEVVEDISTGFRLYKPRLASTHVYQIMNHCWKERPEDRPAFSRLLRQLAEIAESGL

TMD8 [4] = assay: Antitumor activity against human TMD8 cells xenografted in CB-17 SCID nude mouse assessed as tumor growth inhibition at 7.5 mg/kg, po bid administered for 21 days; format: functional; settings: 504 h, time 21 day, read-out: TGI
TMD8 [5] = assay: Induction of cell cycle arrest in human TMD8 cells assessed as accumulation of cells at G1 phase at 30 nM incubated for 48 hrs by PI staining based flow cytometric analysis (reference value: 57.66 %); format: functional
TMD8 [6] = assay: Induction of cell cycle arrest in human TMD8 cells assessed as accumulation of cells at G2 phase at 300 nM incubated for 48 hrs by PI staining based flow cytometric analysis (reference value: 4.92 %); format: functional
TMD8 [7] = assay: Induction of cell cycle arrest in human TMD8 cells assessed as accumulation of cells at S phase at 3 nM incubated for 48 hrs by PI staining based flow cytometric analysis (reference value: 37.42 %); format: functional
Ramos = assay: Antiproliferative activity against human Ramos cells assessed as reduction in cell viability incubated for 72 hrs by celltiter-glo assay
TMD8 [8] = assay: Induction of cell cycle arrest in human TMD8 cells assessed as accumulation of cells at G1 phase at 3 nM incubated for 48 hrs by PI staining based flow cytometric analysis (reference value: 57.66 %); format: functional
MOLM-13 = assay: Antiproliferative activity against human MOLM-13 cells assessed as reduction in cell viability incubated for 72 hrs by celltiter-glo assay; settings: MOLM-13, 72 h
TMD8 [9] = assay: Antiproliferative activity against human TMD8 cells assessed as reduction in cell viability incubated for 72 hrs by celltiter-glo assay; settings: TMD8, 72 h
TMD8 [10] = assay: Induction of cell cycle arrest in human TMD8 cells assessed as accumulation of cells at S phase at 300 nM incubated for 48 hrs by PI staining based flow cytometric analysis (reference value: 37.42 %); format: functional
TMD8 [11] = assay: Induction of apoptosis in human TMD8 cells at 3000 nM incubated for 72 hrs by Annexin V-FITC/PI staining based flow cytometric analysis (reference value: 13.4 %); format: functional
TMD8 [12] = assay: Induction of cell cycle arrest in human TMD8 cells assessed as accumulation of cells at G1 phase at 300 nM incubated for 48 hrs by PI staining based flow cytometric analysis (reference value: 57.66 %); format: functional
TMD8 [13] = assay: Induction of apoptosis in human TMD8 cells at 300 nM incubated for 72 hrs by Annexin V-FITC/PI staining based flow cytometric analysis (reference value: 13.4 %); format: functional
TMD8 [14] = assay: Induction of cell cycle arrest in human TMD8 cells assessed as accumulation of cells at G2 phase at 3 nM incubated for 48 hrs by PI staining based flow cytometric analysis (reference value: 4.92 %); format: functional
TMD8 [15] = assay: Induction of cell cycle arrest in human TMD8 cells assessed as accumulation of cells at G2 phase at 30 nM incubated for 48 hrs by PI staining based flow cytometric analysis (reference value: 4.92 %); format: functional
TMD8 [16] = assay: Induction of cell cycle arrest in human TMD8 cells assessed as accumulation of cells at S phase at 30 nM incubated for 48 hrs by PI staining based flow cytometric analysis (reference value: 37.42 %); format: functional
TMD8 [17] = assay: Induction of apoptosis in human TMD8 cells at 30 nM incubated for 72 hrs by Annexin V-FITC/PI staining based flow cytometric analysis (reference value: 13.4 %); format: functional
[18] = Receptor occupancy at BTK in spleen of ICR mouse at 15 mg/kg, po after 24 hrs by ELISA; format: functional
SU-DHL-2 = assay: Antiproliferative activity against human SUDHL2 cells assessed as reduction in cell viability incubated for 72 hrs by celltiter-glo assay; settings: SU-DHL-2, 72 h
Raji = assay: Antiproliferative activity against human Raji cells assessed as reduction in cell viability incubated for 72 hrs by celltiter-glo assay
[19] = Cmax in ICR mouse at 15 mg/kg, po after 24 hrs; format: ADME, organism-based; design: route oral, time 24 hrs, dose 15 mg/kg; settings: in vivo
Pfeiffer = assay: Antiproliferative activity against human Pfeiffer cells assessed as reduction in cell viability incubated for 72 hrs by celltiter-glo assay
NAMALVA = assay: Antiproliferative activity against human NAMALWA cells assessed as reduction in cell viability incubated for 72 hrs by celltiter-glo assay
Rec1 = assay: Antiproliferative activity against human REC-1 cells assessed as reduction in cell viability incubated for 72 hrs by celltiter-glo assay; settings: Rec1, 72 h

Tyrosine-protein kinase BTK, sequence (Q06187 whole entry, the tested form may be a part): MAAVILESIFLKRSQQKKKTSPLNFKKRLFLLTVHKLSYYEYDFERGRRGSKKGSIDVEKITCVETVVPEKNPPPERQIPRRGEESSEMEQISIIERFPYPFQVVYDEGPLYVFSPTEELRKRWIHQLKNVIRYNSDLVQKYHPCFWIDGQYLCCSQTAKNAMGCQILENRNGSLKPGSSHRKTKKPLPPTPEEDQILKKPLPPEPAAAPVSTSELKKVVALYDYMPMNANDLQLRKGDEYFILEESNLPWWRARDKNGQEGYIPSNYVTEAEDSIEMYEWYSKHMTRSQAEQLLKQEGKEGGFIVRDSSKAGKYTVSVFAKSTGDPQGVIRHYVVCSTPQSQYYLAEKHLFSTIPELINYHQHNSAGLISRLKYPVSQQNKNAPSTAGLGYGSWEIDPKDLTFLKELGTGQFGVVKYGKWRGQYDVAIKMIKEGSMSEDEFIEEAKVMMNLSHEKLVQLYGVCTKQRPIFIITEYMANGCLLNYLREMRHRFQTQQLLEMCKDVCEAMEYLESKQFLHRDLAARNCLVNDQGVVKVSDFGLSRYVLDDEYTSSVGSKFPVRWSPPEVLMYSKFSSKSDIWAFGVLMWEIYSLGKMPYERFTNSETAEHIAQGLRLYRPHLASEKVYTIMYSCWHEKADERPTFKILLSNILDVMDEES

IC50 [1]: 18.9 nM
Structure (SMILES): C=CC(=O)N1CCC[C@@H](c2nc(-c3ccc(C(=O)Nc4cc(CC)ccn4)cc3)c(C(N)=O)n2N)C1

IC50 [1]: 10 nM
Structure (SMILES): C#CC(=O)N1CCCC[C@H]1c1nc(-c2ccc(C(=O)Nc3cc(CC)ccn3)cc2)c(C(N)=O)n1N

IC50 [2]: 176 nM | IC50 [3]: 29500 nM
Structure (SMILES): C=CC(=O)N1CCCC[C@H]1c1nc(-c2ccc(C(=O)Nc3cc(Cl)ccn3)cc2)c(C(N)=O)n1N

IC50 [1]: > 10000 nM
Structure (SMILES): CC/C=C/C(=O)N1CCCC[C@H]1c1nc(-c2ccc(C(=O)Nc3cc(CC)ccn3)cc2)c(C(N)=O)n1N

IC50 [1]: 17.1 nM
Structure (SMILES): C=CC(=O)N1CCCC[C@H]1c1nc(-c2ccc(C(=O)Nc3cc(C#N)ccn3)cc2)c(C(N)=O)n1N

IC50 [1]: 571 nM
Structure (SMILES): C=CC(=O)N1CCCC[C@H]1c1nc(-c2ccc(C(=O)Nc3ccccc3)cc2)c(C(N)=O)n1N

Structure (SMILES): C=CC(=O)N1CCC[C@@H](n2nc(-c3ccc(Oc4ccccc4)cc3)c3c(N)ncnc32)C1 [IBRUTINIB]
inhibition in vivo at 7.5 mg/kg (TMD8 [4]): 99%

IC50 [1]: > 10000 nM
Structure (SMILES): CCc1ccnc(NC(=O)c2ccc(-c3nc([C@@H]4CCCCN4C(=O)C=C(C)C)n(N)c3C(N)=O)cc2)c1

IC50 [1]: > 10000 nM
Structure (SMILES): C/C=C/C(=O)N1CCCC[C@H]1c1nc(-c2ccc(C(=O)Nc3cc(CC)ccn3)cc2)c(C(N)=O)n1N

IC50 [1]: 5160 nM
Structure (SMILES): C=CC(=O)N1CCCC[C@H]1c1nc(-c2ccc(C(=O)Nc3cc(C(F)(F)F)ccn3)cc2)c(C(=O)OCC)n1N

IC50 [2]: > 30000 nM | IC50 [3]: > 30000 nM
Structure (SMILES): CC#CC(=O)N1CCCC[C@H]1c1nc(-c2ccc(C(=O)Nc3cc(Cl)ccn3)cc2)c(C(N)=O)n1N

IC50 [2]: 16800 nM | IC50 [3]: > 30000 nM
Structure (SMILES): CC#CC(=O)N1CCCC[C@H]1c1nc(-c2ccc(C(=O)Nc3cc(-c4ccccc4)ccn3)cc2)c(C(N)=O)n1N

IC50 [1]: 11.3 nM
Structure (SMILES): C=CC(=O)N1CCCC[C@H]1c1nc(-c2ccc(C(=O)Nc3cc(CC)ccn3)cc2)c(C(N)=O)n1N

IC50 [1]: 39.3 nM
Structure (SMILES): C=CC(=O)N1CCC[C@H]1c1nc(-c2ccc(C(=O)Nc3cc(CC)ccn3)cc2)c(C(N)=O)n1N

IC50 [1]: 226 nM
Structure (SMILES): C=CC(=O)N1CCCCC[C@H]1c1nc(-c2ccc(C(=O)Nc3cc(CC)ccn3)cc2)c(C(N)=O)n1N

IC50 [1]: > 10000 nM
Structure (SMILES): CCc1ccnc(NC(=O)c2ccc(-c3nc([C@@H]4CCCCN4C(=O)/C(C#N)=C/C(C)C)n(N)c3C(N)=O)cc2)c1

IC50 [2]: 79.4 nM | IC50 [3]: 2210 nM
Structure (SMILES): C=CC(=O)N1CCCC[C@H]1c1nc(-c2ccc(C(=O)Nc3cc(-c4ccccc4)ccn3)cc2)c(C(N)=O)n1N

IC50 [2]: 450 nM | IC50 [3]: > 30000 nM
Structure (SMILES): C=CC(=O)N1CCCC[C@H]1c1nc(-c2ccc(C(=O)Nc3cc(OC)ccn3)cc2)c(C(N)=O)n1N

IC50 (Ramos): 770 nM | IC50 (MOLM-13): 730 nM | IC50 [3]: > 30000 nM
Structure (SMILES): CC#CC(=O)N1CCCC[C@H]1c1nc(-c2ccc(C(=O)Nc3cc(C(F)(F)F)ccn3)cc2)c(C(N)=O)n1N
Activity (TMD8 [5]): 67.44% | Activity (TMD8 [6]): 3.18% | Activity (TMD8 [7]): 41.28% | Activity (TMD8 [8]): 54.63% | IC50 (TMD8 [9]): 54 nM | Activity (TMD8 [10]): 1.96% | Activity (TMD8 [11]): 81.3% | Activity (TMD8 [12]): 94.86% | Activity (TMD8 [13]): 36.8% | Activity (TMD8 [14]): 4.09% | Activity (TMD8 [15]): 4.76% | Activity (TMD8 [16]): 27.8% | Activity (TMD8 [17]): 14.1%

IC50 [1]: > 10000 nM
Structure (SMILES): C=C(C)C(=O)N1CCCC[C@H]1c1nc(-c2ccc(C(=O)Nc3cc(CC)ccn3)cc2)c(C(N)=O)n1N

IC50 [1]: > 10000 nM
Structure (SMILES): CCc1ccnc(NC(=O)c2ccc(-c3nc([C@@H]4CCCCN4C(=O)/C(C#N)=C/C4CC4)n(N)c3C(N)=O)cc2)c1

IC50 [2]: 578 nM | IC50 [3]: 15300 nM
Structure (SMILES): C=CC(=O)N1CCCC[C@H]1c1nc(-c2ccc(C(=O)Nc3cc(Br)ccn3)cc2)c(C(N)=O)n1N

IC50 [1]: > 10000 nM
Structure (SMILES): C=CC(=O)N1CCCC[C@H]1c1nc(-c2ccc(C(=O)Nc3cccnc3)cc2)c(C(N)=O)n1N

IC50 [1]: 4750 nM
Structure (SMILES): CCC(=O)N1CCCC[C@H]1c1nc(-c2ccc(C(=O)Nc3cc(C(F)(F)F)ccn3)cc2)c(C(N)=O)n1N

IC50 [2]: 12.6 nM | IC50 [3]: 1920 nM
Structure (SMILES): C=CC(=O)N1CCCC[C@H]1c1nc(-c2ccc(C(=O)Nc3cc(-c4ccc(Cl)cc4)ccn3)cc2)c(C(N)=O)n1N

IC50 (Ramos): 31300 nM | IC50 (SU-DHL-2): > 10000 nM | IC50 (MOLM-13): 358000 nM | IC50 (Raji): > 10000 nM | Cmax [19]: 780 nM
Structure (SMILES): CC#CC(=O)N1CCC[C@H]1c1nc(-c2ccc(C(=O)Nc3ccccn3)cc2)c2c(N)nccn12 [ACALABRUTINIB]
Occ [18]: 44% | IC50 (TMD8 [9]): 24 nM | IC50 (Pfeiffer): > 10000 nM | IC50 (NAMALVA): > 10000 nM | inhibition in vivo at 7.5 mg/kg (TMD8 [4]): 91% | IC50 (Rec1): 13 nM

IC50 [2]: 113 nM | IC50 [3]: 6060 nM
Structure (SMILES): C=CC(=O)N1CCCC[C@H]1c1nc(-c2ccc(C(=O)Nc3cc(-c4ccc(F)cc4)ccn3)cc2)c(C(N)=O)n1N
